The record followed here is patent publication US10563214B2, “Use of micropeptides for promoting plant growth” (UNIVERSITE TOULOUSE III-PAUL SABATIER, priority 2014, dated 2020).

Entries after “also recorded” stand apart in the source; their conditions may differ.

One experiment has as its system miR164a. As to the kind of experiment: Northern blot analysis of the accumulation of miR164a in roots treated with synthetic peptide. It is filed as in vivo, Arabidopsis thaliana. The note with it: 0.1 μM synthetic peptide solubilized in water vs water control, U6 loading control, FIG. 1. As to the method:
The photographs show the results of a Northern blot analysis of the accumulation of miR164a in roots treated with water (control, photograph on the left) or with 0.1 μM of a synthetic peptide, having a sequence identical to that of miPEP164a, solubilized in water (0.1 μM miPEP164a). The RNA U6 is used as a loading control, allowing the quantity of miR164a to be quantified.
The A. thaliana Col-0 plants are cultivated on MS basic medium supplemented with 10 g/l of sucrose.
Northern blot analysis was carried out according to the protocol described in Lauressergues et al. Plant J, 72(3):512-22, 2012.
The biological samples were homogenized in a buffer containing 0.1 M of NaCl, 2% SDS, 50 mM of Tris-HCl (pH 9), 10 mM of EDTA (pH 8) and 20 mM of mercaptoethanol, and the RNA was extracted twice with a phenol/chloroform mixture and precipitated with ethanol.
The RNA was loaded on PAGE 15% gel and transferred onto a nylon membrane (HybondNX, Amersham). The RNA was hybridized with an oligonucleotide probe, with radioactive labelling at its end, for detecting the RNA U6 or for miR164a.
The hybridizations were carried out at 55° C. The hybridization signals were quantified using a phosphorimager (Fuji) and normalized with the signal of the probe specific to the RNA U6.

Experiment [1] has as its system Arabidopsis thaliana. As to the kind of experiment: A. thaliana growth test, watering with miPEP164a. It is filed as in vivo. The note with it: watered and sprayed. As to the method: Watering was carried out every 2-3 days with water for the control plants and with water containing 0.1 μM or 1 μM of synthetic peptide (the sequence of which is identical to miPEP164a or to miPEP165a) for the test plants.

For experiment [2], the system named is Arabidopsis thaliana. As to the kind of experiment: A. thaliana growth test, watering and spraying with miPEP319a. It counts as in vivo. The settings on record: 0.1 μM synthetic peptide, watered and sprayed, after 3 weeks of growth vs water control; FIG. 8. The procedure: Arabidopsis thaliana seeds were germinated on GiFi, and then were transferred onto compost and were grown for 3 weeks.
Watering was carried out every 2-3 days and spraying was carried out every day, with water for the control plants and with water containing 0.1 μM of synthetic peptide (the sequence of which is identical to miPEP319a) for the test plants.

In another experiment the test system is AtmiR319a. Briefly: qPCR of AtmiR319a relative expression in plants overexpressing AtmiPEP319a. It counts as in vivo, Arabidopsis thaliana. The note with it: plant overexpressing AtmiPEP319a (35S promoter) vs control plant; n=10; FIG. 7. As to the method:
The error bar corresponds to the standard error of the mean (number of individuals=10).
The RNA was extracted using the reagent Tri-Reagent (MRC) according to the manufacturer's instructions, apart from precipitation of the RNA, which was carried out with 3 volumes of ethanol. Reverse transcription of the RNA was carried out using the stem-loop specific primer RTprimer in combination with hexamers in order to carry out reverse transcription of RNA of high molecular weight. Briefly, 1 μg of RNA was added to the stem-loop specific primer (0.2 μM), hexamer (500 ng), buffer RT (1×), the enzyme SuperScript Reverse transcriptase (SSIII) (one unit), dNTPs (0.2 mM each), DTT (0.8 mM) in a final reaction mixture of 25 μl. In order to carry out the reverse transcription, a pulsed reverse transcription reaction was carried out (40 repetitions of the following cycle: 16° C. for 2 minutes, 42° C. for one minute and 50° C. for one second, followed by final inactivation of the reverse transcription at 85° C. for 5 minutes).
The total RNA of the roots of M. truncatula or of the leaves of tobacco was extracted using the extraction kit RNeasy Plant Mini Kit (Qiagen). Reverse transcription was carried out using the reverse transcriptase SuperScript II (Invitrogen) starting from 500 ng of total RNA. Three repetitions (n=3) were carried out, each with two technical repetitions. […]
(In general: In qPCR the cycle at which signal appears reflects the starting amount.)

Where [3] appears, read: 1 μM synthetic peptide, after 39 days of growth vs water control, FIG. 3.

For “miPEP164a: Peptide encoded by miORF on pri-miR164a of A. thaliana, SEQ ID NO: 2, MPSWHGMVLLPYVKHTHASTHTHTHNIYGCACELVFH (listed as Arabidopsis thaliana)”, the “accumulation of miR164a” value with miR164a is on record as “increase in the accumulation of miR164a”. The plant growth result in the experiment on Arabidopsis thaliana [1] (0.1 μM synthetic peptide, after 3 weeks of growth vs water control, FIG. 2) is recorded as “increases the plant's growth significantly; also recorded: increases the plants' growth significantly”. In addition, in the experiment with Arabidopsis thaliana [1] (setting [3]), the number of flowers entry is “increases the plant's growth and number of flowers significantly”; the plant growth entry was “increases the plant's growth and number of flowers significantly”.
As for “miPEP319a: Peptide encoded by miORF on pri-miR319a of A. thaliana, SEQ ID NO: 10, MNIHTYHHLLFPSLVFHQSSDVPNALSLHIHTYEYIIVVIDPFRITLAFR (listed as Arabidopsis thaliana)”, the plant growth result in the experiment with Arabidopsis thaliana [2] was “increases the plant's growth significantly”. The “accumulation (relative expression) of AtmiR319a” value in the experiment on AtmiR319a is given as “increase in the accumulation of Atmir319a”.
